Assay results from PubChem BioAssay AID1963839 (Molecular Pharmacology Branch, DTP, NCI, 2024).

Tested on: 817829-284-R-J1-PDC complex spheroid viability
Assay: Anticancer human tumor 817829-284-R-J1-PDC patient-derived colon adenocarcinoma cell line growth inhibition [POLQ]
Conditions: for IC50: curve of first compound; for viability, T/C: stronger effect = lower value
In short: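 Patient-derived tumour cells were co-cultured with HUVEC and mesenchymal stem cells as multicellular spheroids at 37 °C. They were treated with POLQ inhibitors (novobiocin, ART-558, RP6685) alone or combined with other agents. Top concentrations were at or near clinical Cmax (otherwise 10 microM; SN-38 at 1 microM), decreasing in half-log steps.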

[1] = second compound 0.0316 µM, first compound 0.0316 µM
[2] = second compound 0.0316 µM, first compound 0.1 µM
[3] = second compound 0.0316 µM, first compound 0.316 µM
[4] = second compound 0.0316 µM, first compound 1 µM
[5] = second compound 0.0316 µM, first compound 3.16 µM
[6] = second compound 0.0316 µM, first compound 10 µM
[7] = second compound 0.1 µM, first compound 0.0316 µM
[8] = second compound 0.1 µM, first compound 0.1 µM
[9] = second compound 0.1 µM, first compound 0.316 µM
[10] = second compound 0.1 µM, first compound 1 µM
[11] = second compound 0.1 µM, first compound 3.16 µM
[12] = second compound 0.1 µM, first compound 10 µM
[13] = second compound 0.316 µM, first compound 0.0316 µM
[14] = second compound 0.316 µM, first compound 0.1 µM
[15] = second compound 0.316 µM, first compound 0.316 µM
[16] = second compound 0.316 µM, first compound 1 µM
[17] = second compound 0.316 µM, first compound 3.16 µM
[18] = second compound 0.316 µM, first compound 10 µM
[19] = second compound 1 µM, first compound 0.0316 µM
[20] = second compound 1 µM, first compound 0.1 µM
[21] = second compound 1 µM, first compound 0.316 µM
[22] = second compound 1 µM, first compound 1 µM
[23] = second compound 1 µM, first compound 3.16 µM
[24] = second compound 1 µM, first compound 10 µM
[25] = second compound 3.16 µM, first compound 0.0316 µM
[26] = second compound 3.16 µM, first compound 0.1 µM
[27] = second compound 3.16 µM, first compound 0.316 µM
[28] = second compound 3.16 µM, first compound 1 µM
[29] = second compound 3.16 µM, first compound 3.16 µM
[30] = second compound 3.16 µM, first compound 10 µM
[31] = second compound 10 µM, first compound 0.0316 µM
[32] = second compound 10 µM, first compound 0.1 µM
[33] = second compound 10 µM, first compound 0.316 µM
[34] = second compound 10 µM, first compound 1 µM
[35] = second compound 10 µM, first compound 3.16 µM
[36] = second compound 10 µM, first compound 10 µM
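Note: spheroids exposed to compounds for 7 days.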
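Throughout, for viability, T/C: 100% = DMSO vehicle-treated spheroids.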

COc1cc(C2c3cc4c(cc3C(OC3OC5COC(C)OC5C(O)C3O)C3COC(=O)C23)OCO4)cc(OC)c1O (centres undefined) + Cc1cccc(N(C)C(=O)C2C(O)CCN2c2nc(C)cc(C(F)(F)F)c2C#N)c1 showed an IC50 (second compound 0.0316 µM) of 55.1 nM, an IC50 (second compound 0.1 µM) of 56.6 nM and an IC50 (second compound 0.316 µM) of 72.1 nM. For the same compound, the IC50 (second compound 1 µM) was 48.6 nM, the IC50 (second compound 3.16 µM) was 47.5 nM and the IC50 (second compound 10 µM) was 45 nM. It also gave a viability, T/C [1] of 68.8%, a viability, T/C [2] of 29.6% and a viability, T/C [3] of 15.7%. The viability, T/C [4] was 17.2%, the viability, T/C [5] was 11.5% and the viability, T/C [6] was 5.61%. For the same compound, the viability, T/C [7] was 65.9%, the viability, T/C [8] was 34.4% and the viability, T/C [9] was 11.6%. It also gave a viability, T/C [10] of 20.5%, a viability, T/C [11] of 13.7% and a viability, T/C [12] of 6.16%. The viability, T/C [13] was 71.5%, the viability, T/C [14] was 41.7% and the viability, T/C [15] was 15.8%. It also gave a viability, T/C [16] of 16.7%, a viability, T/C [17] of 12.2% and a viability, T/C [18] of 7.12%. The viability, T/C [19] was 63.2%, the viability, T/C [20] was 26.5% and the viability, T/C [21] was 18.9%. It also gave a viability, T/C [22] of 19.1%, a viability, T/C [23] of 14.4% and a viability, T/C [24] of 6.32%. It also gave a viability, T/C [25] of 57.4%, a viability, T/C [26] of 38.2% and a viability, T/C [27] of 18%. It also gave a viability, T/C [28] of 15.7%, a viability, T/C [29] of 12.5% and a viability, T/C [30] of 6.13%. The viability, T/C [31] was 59.6%, the viability, T/C [32] was 26.6% and the viability, T/C [33] was 22.6%. For the same compound, the viability, T/C [34] was 17.6%, the viability, T/C [35] was 11.6% and the viability, T/C [36] was 5.64%.
Nc1ccn(C2OC(CO)C(O)C2(F)F)c(=O)n1 (centres undefined) + Cc1cccc(N(C)C(=O)C2C(O)CCN2c2nc(C)cc(C(F)(F)F)c2C#N)c1 was tested, and the IC50 (second compound 0.0316 µM) was < 31.6 nM, the IC50 (second compound 0.1 µM) was < 31.6 nM and the IC50 (second compound 0.316 µM) was < 31.6 nM. The IC50 (second compound 1 µM) was < 31.6 nM, the IC50 (second compound 3.16 µM) was < 31.6 nM and the IC50 (second compound 10 µM) was < 31.6 nM. For the same compound, the viability, T/C [1] was 4.93%, the viability, T/C [2] was 6.34% and the viability, T/C [3] was 5.78%. It also gave a viability, T/C [4] of 4.47%, a viability, T/C [5] of 4.13% and a viability, T/C [6] of 3%. For the same compound, the viability, T/C [7] was 5.1%, the viability, T/C [8] was 4.91% and the viability, T/C [9] was 5.63%. The viability, T/C [10] was 4.62%, the viability, T/C [11] was 3.58% and the viability, T/C [12] was 2.89%. It also gave a viability, T/C [13] of 6.1%, a viability, T/C [14] of 5.35% and a viability, T/C [15] of 5.35%. The viability, T/C [16] was 5.17%, the viability, T/C [17] was 4.11% and the viability, T/C [18] was 2.77%. For the same compound, the viability, T/C [19] was 4.92%, the viability, T/C [20] was 5.99% and the viability, T/C [21] was 4.9%. The viability, T/C [22] was 4.77%, the viability, T/C [23] was 3.54% and the viability, T/C [24] was 2.95%. It also gave a viability, T/C [25] of 5.03%, a viability, T/C [26] of 5.55% and a viability, T/C [27] of 6.02%. For the same compound, the viability, T/C [28] was 4.31%, the viability, T/C [29] was 4.69% and the viability, T/C [30] was 3.24%. The viability, T/C [31] was 6.79%, the viability, T/C [32] was 5.07% and the viability, T/C [33] was 5.13%. The viability, T/C [34] was 4.16%, the viability, T/C [35] was 4.17% and the viability, T/C [36] was 2.99%.
